Data: PubChem BioAssay AID2060500 (Molecular Pharmacology Branch, DTP, NCI, 2025)
pIC50: −log10 of the molar value. Blank lines part the entries; values can stand above or below the compound they belong to.

System: 596521-263-R-J1-PDC complex spheroids, viability % of control
Assay: Anticancer human tumor 596521-263-R-J1-PDC patient-derived soft tissue sarcoma cell line growth inhibition [GQUAD]
Settings: for pIC50: curve of first compound; for viability, T/C: stronger effect = lower value
Summary of the method: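 Viability of tumor cells grown as complex spheroids with endothelial and stromal cells, exposed to drug combinations. Top concentration at or near clinical Cmax (else 10 microM), diluted in half-log increments.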

[1] = second compound 0.0316 µM, first compound 0.0316 µM
[2] = second compound 0.0316 µM, first compound 0.316 µM
[3] = second compound 0.1 µM, first compound 0.0316 µM
[4] = second compound 0.1 µM, first compound 0.316 µM
[5] = second compound 0.316 µM, first compound 0.0316 µM
[6] = second compound 0.316 µM, first compound 0.316 µM
[7] = second compound 1 µM, first compound 0.0316 µM
[8] = second compound 1 µM, first compound 0.316 µM
[9] = second compound 3.16 µM, first compound 0.0316 µM
[10] = second compound 3.16 µM, first compound 0.316 µM
[11] = second compound 10 µM, first compound 0.0316 µM
[12] = second compound 10 µM, first compound 0.316 µM
[13] = second compound 0.0316 µM, first compound 0.1 µM
[14] = second compound 0.0316 µM, first compound 1 µM
[15] = second compound 0.0316 µM, first compound 3.16 µM
[16] = second compound 0.0316 µM, first compound 10 µM
[17] = second compound 0.1 µM, first compound 0.1 µM
[18] = second compound 0.1 µM, first compound 1 µM
[19] = second compound 0.1 µM, first compound 3.16 µM
[20] = second compound 0.1 µM, first compound 10 µM
[21] = second compound 0.316 µM, first compound 0.1 µM
[22] = second compound 0.316 µM, first compound 1 µM
[23] = second compound 0.316 µM, first compound 3.16 µM
[24] = second compound 0.316 µM, first compound 10 µM
[25] = second compound 1 µM, first compound 0.1 µM
[26] = second compound 1 µM, first compound 1 µM
[27] = second compound 1 µM, first compound 3.16 µM
[28] = second compound 1 µM, first compound 10 µM
[29] = second compound 3.16 µM, first compound 0.1 µM
[30] = second compound 3.16 µM, first compound 1 µM
[31] = second compound 3.16 µM, first compound 3.16 µM
[32] = second compound 3.16 µM, first compound 10 µM
[33] = second compound 10 µM, first compound 0.1 µM
[34] = second compound 10 µM, first compound 1 µM
[35] = second compound 10 µM, first compound 3.16 µM
[36] = second compound 10 µM, first compound 10 µM
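Further: spheroids exposed to drugs for 7 days before viability reading.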
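Wherever viability, T/C is given: 100% = DMSO vehicle control viability.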

Compound: Cc1[nH]c2ccccc2c1CCNCc1ccc(/C=C/C(=O)NO)cc1 + Cc1[nH]c2ccc(F)cc2c1-c1nc2c3cccnc3c3ncccc3c2[nH]1
pIC50 (second compound 0.0316 µM): < 6.50 | pIC50 (second compound 0.1 µM): < 6.50 | pIC50 (second compound 0.316 µM): < 6.50 | pIC50 (second compound 1 µM): < 6.50 | pIC50 (second compound 3.16 µM): < 6.50 | pIC50 (second compound 10 µM): < 6.50 | viability, T/C (second compound 0.0316 µM, first compound 0.000999 µM): 108% | viability, T/C (second compound 0.0316 µM, first compound 0.00316 µM): 97% | viability, T/C (second compound 0.0316 µM, first compound 0.00999 µM): 100% | viability, T/C [1]: 82% | viability, T/C (second compound 0.0316 µM, first compound 0.0999 µM): 96.4% | viability, T/C [2]: 90.1% | viability, T/C (second compound 0.1 µM, first compound 0.000999 µM): 99.3% | viability, T/C (second compound 0.1 µM, first compound 0.00316 µM): 90.6% | viability, T/C (second compound 0.1 µM, first compound 0.00999 µM): 94.2% | viability, T/C [3]: 91.3% | viability, T/C (second compound 0.1 µM, first compound 0.0999 µM): 86.9% | viability, T/C [4]: 92.7% | viability, T/C (second compound 0.316 µM, first compound 0.000999 µM): 102% | viability, T/C (second compound 0.316 µM, first compound 0.00316 µM): 94.7% | viability, T/C (second compound 0.316 µM, first compound 0.00999 µM): 93.2% | viability, T/C [5]: 94.3% | viability, T/C (second compound 0.316 µM, first compound 0.0999 µM): 87% | viability, T/C [6]: 94.9% | viability, T/C (second compound 1 µM, first compound 0.000999 µM): 95.9% | viability, T/C (second compound 1 µM, first compound 0.00316 µM): 99.6% | viability, T/C (second compound 1 µM, first compound 0.00999 µM): 91.4% | viability, T/C [7]: 83.9% | viability, T/C (second compound 1 µM, first compound 0.0999 µM): 90.1% | viability, T/C [8]: 94.2% | viability, T/C (second compound 3.16 µM, first compound 0.000999 µM): 82.6% | viability, T/C (second compound 3.16 µM, first compound 0.00316 µM): 82.2% | viability, T/C (second compound 3.16 µM, first compound 0.00999 µM): 91% | viability, T/C [9]: 90.1% | viability, T/C (second compound 3.16 µM, first compound 0.0999 µM): 84.1% | viability, T/C [10]: 88.8% | viability, T/C (second compound 10 µM, first compound 0.000999 µM): 81.2% | viability, T/C (second compound 10 µM, first compound 0.00316 µM): 67.2% | viability, T/C (second compound 10 µM, first compound 0.00999 µM): 85% | viability, T/C [11]: 75.5% | viability, T/C (second compound 10 µM, first compound 0.0999 µM): 76.4% | viability, T/C [12]: 72%

Compound: O=C(NO)c1cnc(N2CCN(S(=O)(=O)c3ccc4ccccc4c3)CC2)nc1 + Cc1[nH]c2ccc(F)cc2c1-c1nc2c3cccnc3c3ncccc3c2[nH]1
pIC50 (second compound 0.0316 µM): > 7.50 | pIC50 (second compound 0.1 µM): > 7.50 | pIC50 (second compound 0.316 µM): > 7.50 | pIC50 (second compound 1 µM): > 7.50 | pIC50 (second compound 3.16 µM): > 7.50 | pIC50 (second compound 10 µM): > 7.50 | viability, T/C [1]: 37.6% | viability, T/C [13]: 28.2% | viability, T/C [2]: 30.4% | viability, T/C [14]: 28.5% | viability, T/C [15]: 27.2% | viability, T/C [16]: 30.4% | viability, T/C [3]: 39.1% | viability, T/C [17]: 25.8% | viability, T/C [4]: 25.8% | viability, T/C [18]: 22% | viability, T/C [19]: 29.8% | viability, T/C [20]: 28% | viability, T/C [5]: 38.3% | viability, T/C [21]: 29.6% | viability, T/C [6]: 29.6% | viability, T/C [22]: 27% | viability, T/C [23]: 26.9% | viability, T/C [24]: 25.5% | viability, T/C [7]: 39.1% | viability, T/C [25]: 30.3% | viability, T/C [8]: 29.2% | viability, T/C [26]: 25.8% | viability, T/C [27]: 27.6% | viability, T/C [28]: 29.3% | viability, T/C [9]: 39.5% | viability, T/C [29]: 34.5% | viability, T/C [10]: 29.7% | viability, T/C [30]: 27.1% | viability, T/C [31]: 26.1% | viability, T/C [32]: 27.7% | viability, T/C [11]: 44.2% | viability, T/C [33]: 31.5% | viability, T/C [12]: 29.5% | viability, T/C [34]: 28.9% | viability, T/C [35]: 29.6% | viability, T/C [36]: 29.8%

pIC50 (second compound 0.0316 µM): 5.05 | pIC50 (second compound 0.1 µM): 5.19 | pIC50 (second compound 0.316 µM): < 5.00 | pIC50 (second compound 1 µM): 5.21 | pIC50 (second compound 3.16 µM): 6.99 | pIC50 (second compound 10 µM): > 7.50
Compound: CC1COCCN1c1cc(C2(S(C)(=N)=O)CC2)nc(-c2ccnc3[nH]ccc23)n1 (stereo not drawn) + Cc1cnc(CNC(=O)c2c(=O)c3ccc(N4CCCN(C)CC4)nc3n3c2sc2ccccc23)cn1
viability, T/C [1]: 91.2% | viability, T/C [13]: 101% | viability, T/C [2]: 86.4% | viability, T/C [14]: 87.3% | viability, T/C [15]: 67.1% | viability, T/C [16]: 48.3% | viability, T/C [3]: 84% | viability, T/C [17]: 93.5% | viability, T/C [4]: 76.1% | viability, T/C [18]: 72.5% | viability, T/C [19]: 59.4% | viability, T/C [20]: 44.2% | viability, T/C [5]: 83% | viability, T/C [21]: 75.5% | viability, T/C [6]: 66.7% | viability, T/C [22]: 72.1% | viability, T/C [23]: 55.6% | viability, T/C [24]: 51.8% | viability, T/C [7]: 58% | viability, T/C [25]: 64.6% | viability, T/C [8]: 66.7% | viability, T/C [26]: 56.8% | viability, T/C [27]: 53% | viability, T/C [28]: 47.4% | viability, T/C [9]: 57% | viability, T/C [29]: 50.5% | viability, T/C [10]: 48.1% | viability, T/C [30]: 45.1% | viability, T/C [31]: 51.9% | viability, T/C [32]: 47% | viability, T/C [11]: 46.6% | viability, T/C [33]: 41.9% | viability, T/C [12]: 49.3% | viability, T/C [34]: 39.4% | viability, T/C [35]: 40.3% | viability, T/C [36]: 37.6%

pIC50 (second compound 0.0316 µM): 5.07 | pIC50 (second compound 0.1 µM): 5.82 | pIC50 (second compound 0.316 µM): 5.77 | pIC50 (second compound 1 µM): 6.20 | pIC50 (second compound 3.16 µM): 6.53 | pIC50 (second compound 10 µM): > 7.50
Compound: COc1ccc([C@@H](O)c2cc(-c3ncnc4cc(N5CCOCC5)ccc34)c(F)cc2Cl)nn1 + Cc1cnc(CNC(=O)c2c(=O)c3ccc(N4CCCN(C)CC4)nc3n3c2sc2ccccc23)cn1
viability, T/C [1]: 99.7% | viability, T/C [13]: 80.7% | viability, T/C [2]: 79.4% | viability, T/C [14]: 77.2% | viability, T/C [15]: 49.2% | viability, T/C [16]: 51.3% | viability, T/C [3]: 92.3% | viability, T/C [17]: 88.4% | viability, T/C [4]: 67.5% | viability, T/C [18]: 50.5% | viability, T/C [19]: 54.6% | viability, T/C [20]: 38.7% | viability, T/C [5]: 84% | viability, T/C [21]: 77.6% | viability, T/C [6]: 63.6% | viability, T/C [22]: 57.1% | viability, T/C [23]: 42.9% | viability, T/C [24]: 37.4% | viability, T/C [7]: 64.5% | viability, T/C [25]: 58.2% | viability, T/C [8]: 58.9% | viability, T/C [26]: 42.5% | viability, T/C [27]: 43% | viability, T/C [28]: 37.6% | viability, T/C [9]: 55.7% | viability, T/C [29]: 59.6% | viability, T/C [10]: 45.2% | viability, T/C [30]: 45.9% | viability, T/C [31]: 40.3% | viability, T/C [32]: 35.4% | viability, T/C [11]: 45.4% | viability, T/C [33]: 27.4% | viability, T/C [12]: 42% | viability, T/C [34]: 38.3% | viability, T/C [35]: 36.3% | viability, T/C [36]: 11%
